{
  "source": "patent US5681738A",
  "about": "“Use of 10-oxo-trans-8-decenoic acid in mushroom cultivation” (The Penn State Research Foundation, priority 1992, dated 1997)",
  "origin": "cited, not measured here",
  "system": "seed chamber of runner bean",
  "settings": "Zimmerman et al., (1979); cited from earlier work",
  "data": [
    {"smiles": "O=C/C=C/CCCCCCCCC(=O)O", "note": "[12-Oxo-trans-10-dodecenoic acid]", "values": [
      {"measurement": "formation of an intumescence on seed chamber (in words)", "result": "found to induce the formation of an intumescence"}
    ]}
  ]
}
